Results published in patent US4358440A, “Polypeptide and its production and use” (Takeda Chemical Industries, Ltd., priority 1980, dated 1982).
Like-named read-outs stand apart in the source and are kept apart here. Residues, ends and D or L forms follow the SMILES beside them.

How the values were obtained:
opiate receptor (brain) = assay: binding strength with the opiate receptor (brain); settings: for binding strength with the opiate receptor (brain) relative to human beta-endorphin: times greater than human beta-endorphin; for binding activity relative to morphine: times greater than morphine
Description: The above experiment was carried out by the procedure as described in The Journal of Biological Chemistry, Vol. 254, No. 8, p. 2610 (1979).

[1] = analgesic action of the novel peptide; settings: result in words; no test described
[2] = result in words
[3] = rats, intracerebral route; cited from earlier work
[4] = mice, intracerebral route; cited from earlier work

CC[C@H](C)[C@H](NC(=O)[C@H](Cc1c[nH]cn1)NC(=O)[C@H](CCCCN)NC(=O)[C@H](CC(C)C)NC(=O)[C@H](CC(C)C)NC(=O)[C@@H](NC(=O)[C@@H](NC(=O)[C@H](CC(C)C)NC(=O)[C@@H]1CCCN1C(=O)[C@H](CCCCN)NC(=O)[C@H](Cc1c[nH]cn1)NC(=O)[C@H](CO)NC(=O)[C@H](CCC(N)=O)NC(=O)[C@H](CCCCN)NC(=O)[C@@H](NC(=O)[C@H](Cc1ccc(O)cc1)NC(=O)[C@@H]1CCCN1C(=O)[C@H](CCCCN)NC(=O)[C@H](CCSC)NC(=O)[C@H](Cc1ccccc1)NC(=O)CNC(=O)CNC(=O)[C@@H](N)Cc1ccc(O)cc1)[C@@H](C)O)[C@@H](C)CC)[C@@H](C)O)C(=O)N[C@H](C(=O)N[C@@H](CC(C)C)C(=O)N[C@@H](CCCCN)C(=O)N[C@@H](CC(N)=O)C(=O)N[C@@H](CCC(=O)O)C(=O)N[C@@H](CCC(N)=O)C(=O)O)[C@@H](C)O [Compound (I), H-Tyr-Gly-Gly-Phe-Met-Lys-Pro-Tyr-Thr-Lys-Gln-Ser-His-Lys-Pro-Leu-Ile-Thr- Leu-Leu-Lys-His-Ile-Thr-Leu-Lys-Asn-Glu-Gln-OH] (H-YGGFMKPYTKQSHKPLITLLKHITLKNEQ-OH)
binding strength with the opiate receptor (brain) relative to human beta-endorphin (opiate receptor (brain); with the addition of sodium): about 3.05 times
binding activity relative to morphine (opiate receptor (brain); with the addition of sodium): about 3.74 times
binding strength with the opiate receptor (brain) relative to human beta-endorphin (opiate receptor (brain); without the addition of sodium): about 2.71 times
binding activity relative to morphine (opiate receptor (brain); without the addition of sodium): about 4.6 times
analgesic action [1]: excellent analgesic action
toxicity [2]: very low toxicity

CC[C@H](C)[C@H](NC(=O)[C@H](Cc1c[nH]cn1)NC(=O)[C@H](CCCCN)NC(=O)[C@H](CC(C)C)NC(=O)[C@H](CC(C)C)NC(=O)[C@@H](NC(=O)[C@@H](NC(=O)[C@H](CC(C)C)NC(=O)[C@@H]1CCCN1C(=O)[C@H](CCCCN)NC(=O)[C@H](Cc1c[nH]cn1)NC(=O)[C@H](CO)NC(=O)[C@H](CCC(N)=O)NC(=O)[C@H](CCCCN)NC(=O)[C@@H](NC(=O)[C@H](Cc1ccc(O)cc1)NC(=O)[C@@H]1CCCN1C(=O)[C@H](CCCCN)NC(=O)[C@H](CCSC)NC(=O)[C@H](Cc1ccccc1)NC(=O)CNC(=O)CNC(=O)[C@H](Cc1ccc(O)cc1)NC(C)=O)[C@@H](C)O)[C@@H](C)CC)[C@@H](C)O)C(=O)N[C@H](C(=O)N[C@@H](CC(C)C)C(=O)N[C@@H](CCCCN)C(=O)N[C@@H](CC(N)=O)C(=O)N[C@@H](CCC(=O)O)C(=O)N[C@@H](CCC(N)=O)C(=O)O)[C@@H](C)O [salmon endorphin, reference compound] (Ac-YGGFMKPYTKQSHKPLITLLKHITLKNEQ-OH)
binding to the opiate receptor (opiate receptor (brain); result in words): in no way binds to the opiate receptor

beta-endorphin: brain peptide in mammals, a particularly important physiological peptide among the endorphins (YGGFMTSEKSQTPLVTLFKNAIIKNAYKKGE; Beta-endorphin; UniProt P01189 237-267, looked up)
analgesic effect [3]: exerts an analgesic effect
analgesic effect [4]: exerts an analgesic effect
